Laboratory results from US10239844B2, “Disubstituted triazole analogs” (BioVentures, LLC, priority 2014, dated 2019).

Assays:
Assay type in all cases: cell-based, human
[1] = tested on: SNB-75; experiment: NCI 60 panel five-dose growth inhibition, CNS Cancer; conditions: SNB-75, CNS Cancer; for GI50: Homo sapiens
[2] = tested on: PC-3; experiment: NCI 60 panel five-dose growth inhibition, Prostate Cancer; conditions: PC-3, Prostate Cancer; for GI50: Homo sapiens
[3] = tested on: SF-268; experiment: NCI 60 panel five-dose growth inhibition, CNS Cancer; conditions: SF-268, CNS Cancer; for GI50: Homo sapiens
[4] = tested on: OVCAR-4; experiment: NCI 60 panel five-dose growth inhibition, Ovarian Cancer; conditions: OVCAR-4, Ovarian Cancer; for GI50: Homo sapiens
[5] = tested on: COLO 205; experiment: NCI 60 panel five-dose growth inhibition, Colon Cancer; conditions: COLO 205, Colon Cancer; for GI50: Homo sapiens
[6] = tested on: NCI-H23; experiment: NCI 60 panel five-dose growth inhibition, Non-Small Cell Lung Cancer; conditions: for GI50: Homo sapiens
[7] = tested on: CCRF-CEM; experiment: NCI 60 panel five-dose growth inhibition, Leukemia; conditions: for GI50: Homo sapiens
[8] = tested on: MDA-MB-231/ATCC; experiment: NCI 60 panel five-dose growth inhibition, Breast Cancer; conditions: for GI50: Homo sapiens
[9] = tested on: IGROV1; experiment: NCI 60 panel five-dose growth inhibition, Ovarian Cancer; conditions: for GI50: Homo sapiens, IGROV-1
[10] = tested on: SF-539; experiment: NCI 60 panel five-dose growth inhibition, CNS Cancer; conditions: SF-539, CNS Cancer; for GI50: Homo sapiens
[11] = tested on: ACHN; experiment: NCI 60 panel five-dose growth inhibition, Renal Cancer; conditions: for GI50: Homo sapiens
[12] = tested on: SR; experiment: NCI 60 panel five-dose growth inhibition, Leukemia; conditions: for GI50: Homo sapiens
[13] = tested on: DU-145; experiment: NCI 60 panel five-dose growth inhibition, Prostate Cancer; conditions: DU-145, Prostate Cancer; for GI50: Homo sapiens
[14] = tested on: HCT-116; experiment: NCI 60 panel five-dose growth inhibition, Colon Cancer; conditions: HCT-116, Colon Cancer; for GI50: Homo sapiens
[15] = tested on: A549/ATCC; experiment: NCI 60 panel five-dose growth inhibition, Non-Small Cell Lung Cancer; conditions: for GI50: Homo sapiens
[16] = tested on: 5K-MEL-5; experiment: NCI 60 panel five-dose growth inhibition, Melanoma; conditions: 5K-MEL-5, Melanoma; for GI50: Homo sapiens
[17] = tested on: M14; experiment: NCI 60 panel five-dose growth inhibition, Melanoma
[18] = tested on: SW-620; experiment: NCI 60 panel five-dose growth inhibition, Colon Cancer; conditions: SW-620, Colon Cancer; for GI50: Homo sapiens
[19] = tested on: CAKI-1; experiment: NCI 60 panel five-dose growth inhibition, Renal Cancer; conditions: CAKI-1, Renal Cancer; for GI50: Homo sapiens
[20] = tested on: KM12; experiment: NCI 60 panel five-dose growth inhibition, Colon Cancer; conditions: for GI50: Homo sapiens
[21] = tested on: HCC-2998; experiment: as above; conditions: HCC-2998, Colon Cancer; for GI50: Homo sapiens
[22] = tested on: MOLT-4; experiment: NCI 60 panel five-dose growth inhibition, Leukemia; conditions: MOLT-4, Leukemia; for GI50: Homo sapiens
[23] = tested on: HOP-62; experiment: NCI 60 panel five-dose growth inhibition, Non-Small Cell Lung Cancer; conditions: HOP-62, Non-Small Cell Lung Cancer; for GI50: Homo sapiens
[24] = tested on: SK-MEL-28; experiment: NCI 60 panel five-dose growth inhibition, Melanoma; conditions: SK-MEL-28, Melanoma; for GI50: Homo sapiens
[25] = tested on: UACC-62; experiment: NCI 60 panel five-dose growth inhibition, Melanoma; conditions: for TGI: UACC-62, Melanoma
[26] = tested on: MCF7; experiment: NCI 60 panel five-dose growth inhibition, Breast Cancer; conditions: for GI50: Homo sapiens
[27] = tested on: SNB-19; experiment: NCI 60 panel five-dose growth inhibition, CNS Cancer; conditions: SNB-19, CNS Cancer; for GI50: Homo sapiens
[28] = tested on: MDA-MB-435; experiment: NCI 60 panel five-dose growth inhibition, Melanoma; conditions: Homo sapiens; MDA-MB-435, Melanoma
[29] = tested on: NCI-H460; experiment: NCI 60 panel five-dose growth inhibition, Non-Small Cell Lung Cancer; conditions: for GI50: Homo sapiens
[30] = tested on: HOP-92; experiment: as above; conditions: HOP-92, Non-Small Cell Lung Cancer; for GI50: Homo sapiens
[31] = tested on: NCI/ADR-RES; experiment: NCI 60 panel five-dose growth inhibition, Ovarian Cancer; conditions: for GI50: Homo sapiens
[32] = tested on: MDA-MB-468; experiment: NCI 60 panel five-dose growth inhibition, Breast Cancer; conditions: MDA-MB-468, Breast Cancer; for GI50: Homo sapiens
[33] = tested on: 1-ICT-15; experiment: NCI 60 panel five-dose growth inhibition, Colon Cancer; conditions: 1-ICT-15, Colon Cancer; for GI50: Homo sapiens
[34] = tested on: U0-31; experiment: NCI 60 panel five-dose growth inhibition, Renal Cancer; conditions: U0-31, Renal Cancer; for GI50: Homo sapiens
[35] = tested on: HT29; experiment: NCI 60 panel five-dose growth inhibition, Colon Cancer; conditions: for GI50: Homo sapiens, HT-29
[36] = tested on: 786-0; experiment: NCI 60 panel five-dose growth inhibition, Renal Cancer; conditions: 786-0, Renal Cancer; for GI50: Homo sapiens
[37] = tested on: SK-OV-3; experiment: NCI 60 panel five-dose growth inhibition, Ovarian Cancer; conditions: SK-OV-3, Ovarian Cancer; for GI50: Homo sapiens

Compound `COc1ccc(-c2n[nH]nc2-c2cc(OC)c(OC)c(OC)c2)cc1` [Example 6, 4-(4-methoxyphenyl)-5-(3,4,5-trimethoxyphenyl)-2H-1,2,3-triazole] has a GI50 [1] of under 10 nM, a TGI [1] of 21900 nM and a GI50 [2] of 18.4 nM. For the same compound, the TGI [2] was 39400 nM, the GI50 [3] was 68.5 nM and the TGI [3] was over 100000 nM. It also gave a GI50 [4] of 33.6 nM, a TGI [4] of 57200 nM and a TGI [5] of 70 nM. It also gave a GI50 [5] of 26.7 nM, a TGI [6] of 41700 nM and a GI50 [6] of 48 nM. For the same compound, the TGI [7] was over 100000 nM, the GI50 [7] was 33.7 nM and the TGI [8] was over 100000 nM. For the same compound, the GI50 [8] was 44.4 nM, the TGI [9] was 30300 nM and the GI50 [9] was 33.2 nM. For the same compound, the GI50 [10] was under 10 nM, the TGI [11] was over 100000 nM and the GI50 [11] was under 10 nM. It also gave a TGI [12] of 24000 nM, a GI50 [12] of under 10 nM and a TGI [13] of over 100000 nM. For the same compound, the GI50 [13] was 25 nM, the TGI [14] was 810 nM and the GI50 [14] was under 10 nM. It also gave a TGI [15] of 22600 nM, a GI50 [15] of 22.9 nM and a TGI [16] of 160 nM. The GI50 [16] was under 10 nM, the GI50 ([17]; Homo sapiens) was under 10 nM and the GI50 [18] was under 10 nM. The TGI [18] was over 100000 nM, the TGI [19] was over 100000 nM and the GI50 [19] was under 10 nM. The TGI [20] was 11200 nM, the GI50 [20] was under 10 nM and the TGI [21] was 17500 nM. The GI50 [21] was 39.4 nM, the GI50 [22] was 39.9 nM and the TGI [22] was 11600 nM. The TGI [23] was 19300 nM, the GI50 [23] was 18.2 nM and the GI50 [24] was over 100 nM. For the same compound, the TGI [24] was 34800 nM, the TGI [25] was 21200 nM and the TGI [26] was 37900 nM. It also gave a GI50 [26] of under 10 nM, a GI50 [27] of 29.4 nM and a TGI [27] of over 100000 nM. The GI50 [28] was under 10 nM, the TGI [29] was 20000 nM and the GI50 [29] was 24.6 nM. The TGI [30] was 540 nM, the GI50 [30] was under 10 nM and the TGI [31] was 69700 nM. It also gave a GI50 [31] of under 10 nM, a GI50 [32] of 14.7 nM and a TGI [32] of 30500 nM. For the same compound, the TGI [33] was over 100000 nM, the GI50 [33] was under 10 nM and the GI50 [34] was under 10 nM. For the same compound, the TGI [34] was 24600 nM, the TGI [35] was 12300 nM and the GI50 [35] was 25.3 nM. The TGI [36] was 13500 nM, the GI50 [36] was under 10 nM and the GI50 [37] was under 10 nM. The TGI [37] was 12700 nM.

Work on `COc1cc(-c2n[nH]nc2-c2ccc3c(c2)OCCO3)cc(OC)c1OC` [Example 7, 4-(2,3-dihydrobenzo[b][1,4]dioxin-6-yl)-5-(3,4,5-trimethoxyphenyl)-2H-1,2,3-triazole] yielded a GI50 [1] of 82.4 nM, a GI50 [2] of 255 nM and a TGI [2] of 43700 nM. The GI50 [3] was over 1000 nM, the TGI [3] was over 100000 nM and the GI50 [4] was 76.3 nM. For the same compound, the TGI [4] was over 100000 nM, the TGI [5] was 1300 nM and the GI50 [5] was 311 nM. The TGI [6] was over 100000 nM, the GI50 [6] was 767 nM and the TGI [7] was over 100000 nM. It also gave a GI50 [7] of 282 nM, a TGI [8] of 31500 nM and a GI50 [8] of 529 nM. For the same compound, the TGI [9] was over 100000 nM, the GI50 [9] was over 1000 nM and the GI50 [10] was 181 nM. For the same compound, the TGI [10] was 540 nM, the TGI [11] was over 100000 nM and the GI50 [11] was 705 nM. For the same compound, the TGI [12] was 11600 nM, the GI50 [12] was 43.6 nM and the TGI [13] was over 100000 nM. The GI50 [13] was 346 nM, the TGI [14] was 15600 nM and the GI50 [14] was 181 nM. For the same compound, the TGI [15] was 50900 nM, the GI50 [15] was 289 nM and the TGI [16] was 11900 nM. For the same compound, the GI50 [16] was over 1000 nM, the TGI [17] was 12000 nM and the GI50 [18] was 105 nM. The TGI [18] was over 100000 nM, the TGI [19] was over 100000 nM and the GI50 [19] was 316 nM. For the same compound, the TGI [20] was 11900 nM, the GI50 [20] was 70 nM and the TGI [21] was 24600 nM. It also gave a GI50 [21] of over 1000 nM, a GI50 [22] of 572 nM and a TGI [22] of 51800 nM. For the same compound, the TGI [23] was over 100000 nM, the GI50 [23] was 336 nM and the GI50 [24] was 244 nM. For the same compound, the TGI [24] was 43500 nM, the GI50 ([25]; Homo sapiens, UACC-62, UACC-62, Melanoma) was over 1000 nM and the TGI [25] was 30800 nM. For the same compound, the TGI [26] was over 100000 nM, the GI50 [26] was 76.8 nM and the GI50 [27] was 501 nM. For the same compound, the TGI [27] was over 100000 nM, the GI50 [28] was 94.8 nM and the TGI [29] was 28700 nM. The GI50 [29] was 335 nM, the TGI [30] was 1590 nM and the GI50 [30] was 122 nM. The TGI [31] was 24000 nM, the GI50 [31] was 84.9 nM and the GI50 [32] was 226 nM. It also gave a TGI [32] of 25800 nM, a TGI [33] of over 100000 nM and a GI50 [33] of 125 nM. It also gave a GI50 [34] of 661 nM, a TGI [34] of 72700 nM and a TGI [35] of 12500 nM. The GI50 [35] was 392 nM, the TGI [36] was 63500 nM and the GI50 [36] was 618 nM. The GI50 [37] was 486 nM and the TGI [37] was 93200 nM.
